{"source": "patent US20210002371A1", "about": "“COMBINATION OF AN ANTI-PD-L1 ANTIBODY AND IDO1 INHIBITOR FOR THE TREATMENT OF CANCER” (Merck Patent GmbH, priority 2017, published 2021)", "key": {"[1]": {"test_system": "CT26-KSA colon carcinoma cells", "assay": "Anti-tumor efficacy in CT26-KSA tumor-bearing mice (s.c. colon carcinoma model)", "type": "in vivo, BALB/c female mice", "settings": "M4112 200 mg/kg p.o. 2x/day for 3 weeks, avelumab 400 μg i.v. Days 0, 3, 6", "method": "(§1) Tumor growth data are presented in graphical form as the mean and standard error of the mean (SEM) of tumor volumes every 3 or 4 days. Two-way repeated measures analysis of variance (RM ANOVA) with Tukey's post-test was performed to assess differences in tumor volumes between treatment groups. Treatment/Control (T/C) values were calculated as the mean tumor volume of the treatment group divided by the mean tumor volume of the control group on the last day of observation and are expressed as percentages. In all cases, p<0.05 was considered statistically significant. Kaplan Meier survival curves were analyzed by Log-Rank (Mantel-Cox) test. A Bonferroni-corrected significance threshold of p<0.0125 was used to account for multiple comparisons.\nThe combination treatment of avelumab and M4112 in a CT26-KSA murine model was undertaken to evaluate the anti-tumor activity in BALB/c mice. […] The tumor volume, mice survival and mouse body weight were measured. […]\nCT26-KSA cells were cultured in RPMI-1640 medium containing 10% FBS, 2 mM L-glutamine, 0.1 mM non-essential amino acids (NEAA), 1 mM Na Pyruvate, 1% MEM vitamin solution and 1% G418 antibiotic (1 mg/mL). […] Cells were harvested by trypsinization with TrypLE Express and viable cell counts were determined using a Countess or hematocrit chamber cell counter and trypan blue exclusion staining. […]"}, "[2]": {"test_system": "MC38 colon carcinoma cells", "assay": "Anti-tumor efficacy in MC38 tumor-bearing mice (s.c. colon carcinoma model)", "type": "in vivo, C57BL/6 female mice", "settings": "Day 24; M4112 200 mg/kg p.o. 2x/day for 4 weeks; avelumab 400 μg i.v. Days 0, 2, 4; control = M4112 vehicle + isotype control", "method": "as §1\nThe combination treatment of avelumab and M4112 in the MC38 murine model was undertaken to evaluate the anti-tumor activity in C57BL/6 mice. […] The tumor volume, mice survival and mouse body weight were measured.\nMC38 cells were cultured in DMEM containing 4.5 g/L D-glucose, 2 mM glutamine, and 110 mg/L sodium pyruvate and supplemented with 10% FBS, 0.1 mM MEM NEAA, and penicillin/streptomycin. […] Cells were harvested by trypsinization with TrypLE Express and viable cell counts were determined using a Countess or hematocrit chamber cell counter and trypan blue exclusion staining. […]"}, "[3]": {"test_system": "IDO1 expressing mDCs co-cultured with PBMCs", "assay": "One-way Mixed Lymphocyte Reaction (MLR) assay, IFNγ production by ELISA", "type": "cell-based, human", "settings": "M4112 5 μM, avelumab 0.61-10000 ng/mL", "method": "High levels of IDO1 in mDCs correlate with suppressed avelumab activity (IFNγ production) in the one-way MLR assay, which is reversed in an avelumab dose-dependent manner when M4112 is used in combination. Prior to the one-way MLR assay, imDCs from donor 17988 were treated with 1 μg/mL LPS for two days to obtain mDCs. Cells were stained with either an isotype control Phycoerythrin (PE) antibody or an anti-IDO1-PE antibody. (A-B) Stained cells were analyzed via FACS. Purple (solid curve) represents isotype control stained cells and green (transparent curve) represents IDO1-PE stained cells. […] On (C) Day 4 (Experiment A) or (D) Day 3 (Experiment B) of the MLR assay, IFNγ levels ([…]) were measured in the co-culture supernatant via IFNγ ELISA. […]\nThis example describes the in vitro characterization of M4112, alone and in combination with the anti-tumor compound avelumab, using one-way Mixed Lymphocyte Reaction (MLR) assays. […] Using this functional assay, the immune IDO1 expressing cells (mDCs) were cultured with PBMCs in the presence or absence of the IDO1/TDO2 inhibitor, M4112, and the immune response was evaluated by looking at IFNγ production. […]\nA one-way MLR assay was performed with a 2.3:1 ratio of PBMC to mDC (stimulated with LPS) under two different conditions. […] Both experiments measured the change in IFNγ concentration using the optical density of a standard curve from an ELISA."}}, "data": [{"smiles": "NS(=O)(=O)[C@H]1CC[C@](F)(CC[C@H]2c3ccccc3-c3cncn32)CC1", "note": "[Compound M4112, c-4-fluoro-t-4-[(S)-2-(5H-imidazo[5,1-a]isoindol-5-yl)-ethyl]-cyclohexane-r-1-sulfonic acid amide]", "values": [{"measurement": "median survival time", "setting": "[1]; CT26-KSA tumor-bearing mice", "result": 30.5, "unit": "days"}, {"measurement": "T/C (mean tumor volume of treatment group / mean tumor volume of control group)", "setting": "[1]; Day 21, control = M4112 vehicle + isotype control", "result": 78, "unit": "%"}, {"measurement": "T/C (mean tumor volume of treatment group / mean tumor volume of control group)", "setting": "[2]", "result": 72, "unit": "%"}, {"measurement": "avelumab activity (IFNγ production) in MLR", "setting": "[3]; Experiment A: IDO1-high mDCs, Day 4", "result": "the activity of avelumab was restored to normal levels"}, {"measurement": "avelumab activity (IFNγ production) in MLR", "setting": "[3]; Experiment B: IDO1-low mDCs, Day 3", "result": "no change in avelumab activity"}]}]}
